# Molecular target: Flap endonuclease 1 (Homo sapiens, UniProt P39748)
# Assay: Enzymatic IC50 Assays: FEN1, EXO1 or XPG enzyme was incubated with compound or vehicle (DMSO) and the FAM-labeled DNA oligomer substrate in a microtiter plate. The stop buffer contains EDTA to stop the enzymatic reaction. The plate is read for fluorescence intensity. The high control (DMSO) with high fluorescence intensity represents no inhibition of enzymatic reaction while the low control (10 μM) with low fluorescence intensity represents full inhibition of enzymatic reaction.
# Sequence of Flap endonuclease 1 (P39748 whole entry): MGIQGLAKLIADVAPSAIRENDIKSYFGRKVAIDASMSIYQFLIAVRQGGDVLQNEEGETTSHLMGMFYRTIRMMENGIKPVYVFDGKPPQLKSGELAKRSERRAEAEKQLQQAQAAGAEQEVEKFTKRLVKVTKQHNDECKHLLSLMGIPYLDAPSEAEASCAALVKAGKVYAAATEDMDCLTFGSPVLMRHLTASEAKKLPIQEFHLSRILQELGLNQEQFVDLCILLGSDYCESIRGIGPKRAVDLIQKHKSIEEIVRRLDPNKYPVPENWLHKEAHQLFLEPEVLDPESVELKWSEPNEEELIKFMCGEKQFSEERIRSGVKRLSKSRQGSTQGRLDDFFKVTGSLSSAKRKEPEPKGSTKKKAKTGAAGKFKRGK
row,IC50 [nM],SMILES
1,< 200,O=C(O)c1c(O)c(=O)n(Cc2cnc3ccccn23)c2ccsc12
2,< 200,COc1ccc(Cn2cc(Cn3c(=O)c(O)c(C(=O)O)c4sccc43)cn2)cc1
3,< 200,COc1ccc(Cn2c(=O)c(O)c(C(=O)O)c3sccc32)cn1
4,< 200,Cc1c(Cn2c(=O)c(O)c(C(=O)O)c3sccc32)cnn1C
5,< 200,COc1cccc(-n2cc(Cn3c(=O)c(O)c(C(=O)O)c4sccc43)cn2)c1
6,< 200,O=C(O)c1c(O)c(=O)n(Cc2cnn(-c3cccc(Cl)c3)c2)c2ccsc12
